The test addresses T1, truncated human beta-secretase (residues 1-458, His6-tagged at the C-terminus) (Homo sapiens, UniProt P56817).
T1 construct: truncated human beta-secretase (residues 1-458, His6-tagged at the C-terminus); His6 (C); made in house; host or cells: insect cells D. melanogaster S2 (baculovirus expression system (so in the source))
The test is described as follows: BACE fluorescence quench assay. It counts as biochemical. As for the experimental part: The assay was performed at room temperature in 96-well white opaque Optiplates aque Optiplates (PerkinElmer, Waltham, Mass.) in a total volume of 200 μl of the incubation mixture containing 50 mM sodium acetate buffer, pH 4.5, 0.4 μM FRET substrate, 2.4 nM enzyme, 5% DMSO, and 0.05% Brij-35. The tested compounds were serially diluted in DMSO and pre-incubated with the substrate. The reaction was started by addition of enzyme, and the progress of the reaction was followed by measuring fluorescence with an excitation wavelength of 480 nm and an emission wavelength of 520 nm. Ten measurements were taken every 5-10 min, and the intensity of fluorescence was regressed against time in order to derive velocities of reaction in all 96 wells. […] IC50 values were calculated by fitting percent inhibition vs. inhibitor concentration into a four-parametric logistic model using XLFit software (IDBS, Guildford, UK).

[1] abbreviates: in vitro enzyme activity, BACE fluorescence assay, pH 4.5, read-out: IC50.

The structures appear in SMILES notation. Like-named read-outs stand apart in the source and are kept apart here.

T1 sequence (P56817 22-458): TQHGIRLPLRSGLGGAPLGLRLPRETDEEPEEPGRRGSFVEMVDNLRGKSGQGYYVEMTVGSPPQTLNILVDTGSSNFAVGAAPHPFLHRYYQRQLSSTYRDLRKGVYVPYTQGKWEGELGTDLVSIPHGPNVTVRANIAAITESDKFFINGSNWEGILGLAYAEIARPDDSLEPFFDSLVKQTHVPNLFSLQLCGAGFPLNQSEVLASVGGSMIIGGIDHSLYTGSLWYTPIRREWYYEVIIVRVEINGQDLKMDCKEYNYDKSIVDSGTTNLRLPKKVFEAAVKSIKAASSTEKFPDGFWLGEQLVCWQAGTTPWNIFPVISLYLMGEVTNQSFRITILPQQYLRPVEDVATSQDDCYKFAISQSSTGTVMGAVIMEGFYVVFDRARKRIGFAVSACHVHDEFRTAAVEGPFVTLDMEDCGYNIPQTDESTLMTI

Consider `CN1OC2(CC(C3CCOC(C)(C)C3)Oc3ccc(-c4cccc(C#N)n4)cc32)N=C1N` (stereo not drawn) [Compound 406], for which the IC50 (usually the concentration needed to halve the response being measured) under setting [1] was in the range of 1 to 5 µM.

For `CC1C2(CCCOC2)Oc2ccc(-c3cccc(C#N)c3)cc2C12N=C(N)N(C)O2` (stereo not drawn) [Compound 111], the IC50 under setting [1] lay within 0.1 to 0.5 µM.

With `CN1C(=O)C2(CC(c3cccnc3)Oc3ccc(-c4cccc(C#N)c4)cc32)N=C1N` (stereo not drawn) [Compound 31], the IC50 under setting [1] lay within 1 to 5 µM.

In turn, `CNC(=O)c1cccc(-c2ccc3c(c2)C2(CC(c4ccccc4)O3)N=C(N)N(C)C2=O)c1` (stereo not drawn) [Compound 50, 3-(2′-amino-1′-methyl-5′-oxo-2-phenyl-1′,5′-dihydrospiro[chroman-4,4′-imidazole]-6-yl)-N-methylbenzamide] displayed a half-inhibitory concentration (IC50) of 5 to 10 µM.

Consider `CN1C(=O)C2(CC(c3ccc(F)cc3)Oc3ccc(-c4cccc(C#N)c4)cc32)N=C1N` (stereo not drawn) [Compound 19, 3-(2′-amino-2-(4-fluorophenyl)-1′-methyl-5′-oxo-1′,5′-dihydrospiro[chroman-4,4′-imidazole]-6-yl)benzonitrile], for which, under setting [1], the IC50 lay in the range of 0.5 to 1 µM.

For the compound `CN(C)C(=O)c1cccc(-c2ccc3c(c2)C2(CC(c4ccccc4)O3)N=C(N)N(C)C2=O)c1` (stereo not drawn) [Compound 39, 3-(2′-amino-1′-methyl-5′-oxo-2-phenyl-1′,5′-dihydrospiro[chroman-4,4′-imidazole]-6-yl)-N,N-dimethylbenzamide], the 50% inhibitory concentration (IC50) lay in the range of 1 to 5 µM.

Regarding `CN1C(=O)[C@@]2(C[C@@]3(CCCOC3)Oc3ccc(-c4cccc(OC(F)(F)F)c4)cc32)N=C1N` [Compound 357], the 50% inhibitory concentration (IC50) under setting [1] fell in the range of 0.5 to 1 µM.

For `CN1OC2(CC(C3CCCOC3)Oc3ccc(-c4cncnc4)cc32)N=C1N` (stereo not drawn) [Compound 98], under setting [1], the IC50 lay in the range of 1 to 5 µM.

Take `CC(C)=CC(CCO)C1CC2(N=C(N)N(C)O2)c2cc(-c3cccc(F)c3)ccc2O1` (stereo not drawn) [Compound 436]: the IC50 under setting [1] was in the range of 5 to 10 µM.

On to `CN1C(=O)[C@@]2(C[C@@]3(CCCOC3)Oc3ccc(-c4cc(Cl)cc(Cl)c4)cc32)N=C1N` [Compound 281], for which, under setting [1], the 50% inhibitory concentration (IC50) lay in the range of 0.1 to 0.5 µM.

With `CC(C)=C[C@H](CCO)[C@@H]1C[C@@]2(N=C(N)N(C)O2)c2cc(-c3cc(F)cc(F)c3F)ccc2O1` [Compound 441], the IC50 under setting [1] was 5 to 10 µM.

The compound `CN1C(=O)C2(CC(c3ccccc3)Oc3ccc(-c4ccc(S(=O)(=O)N(C)C)cc4)cc32)N=C1N` (stereo not drawn) [Compound 65, 4-(2′-amino-1′-methyl-5′-oxo-2-phenyl-1′,5′-dihydrospiro[chroman-4,4′-imidazole]-6-yl)-N,N-dimethylbenzenesulfonamide] registered an IC50 of 10 to 50 µM.

Compound `CN1C(=O)C2(CC(c3ccccc3)Oc3ccc(-c4ccc(S(C)(=O)=O)cc4)cc32)N=C1N` (stereo not drawn) [Compound 49, 2′-amino-1′-methyl-6-(4-(methylsulfonyl)phenyl)-2-phenylspir-o[chroman-4,4′-imidazol]-5′(1′H)-one] had a half-maximal inhibitory concentration (IC50) of 5 to 10 µM.

Consider `CN(C)C(=O)c1ccccc1-c1ccc2c(c1)C1(CC(c3ccccc3)O2)N=C(N)N(C)C1=O` (stereo not drawn) [Compound 66, 2-(2′-amino-1′-methyl-5′-oxo-2-phenyl-1′,5′-dihydrospiro[chroman-4,4′-imidazole]-6-yl)-N,N-dimethylbenzamide], for which the IC50 fell in the range of 10 to 50 µM.

`CN1OC2(N=C1N)c1cc(-c3cccc(C#N)c3)ccc1OC1(CCCOC1)C2(F)F` (stereo not drawn) [Compound 112]: under setting [1], the IC50 is 0.5 to 1 µM.

For the compound `CC1CCC2(C1)CC1(N=C(N)N(C)O1)c1cc(-c3cccc(C#N)c3)ccc1O2` (stereo not drawn) [Compound 125], the IC50 under setting [1] fell in the range of 5 to 10 µM.

Consider `CN1OC2(CC3(CCCOC3)Oc3ccc(-c4cccc(F)c4)cc32)N=C1N` (stereo not drawn) [Compound 119], for which the 50% inhibitory concentration (IC50) under setting [1] fell in the range of 1 to 5 µM.

Compound `CCN(CC)C(=O)c1ccc(-c2ccc3c(c2)C2(CC(c4ccccc4)O3)N=C(N)N(C)C2=O)cc1` (stereo not drawn) [Compound 71, 4-(2′-amino-1′-methyl-5′-oxo-2-phenyl-1′,5′-dihydro-spiro[chroman-4,4′-imidazole]-6-yl)-N,N-diethylbenzamide] registered an IC50 of 10 to 50 µM.

Consider `CN1OC2(CC(C3CCOCC3)Oc3ccc(-c4cc(Cl)cc(C#N)c4)cc32)N=C1N` (stereo not drawn) [Compound 350], for which, under setting [1], the half-inhibitory concentration (IC50) was 0.5 to 1 µM.

In the case of `CN1C(=O)[C@@]2(CC(c3cccs3)Oc3ccc(-c4cccc(C#N)c4)cc32)N=C1N` (stereo in doubt) [Compound 8a, 3-((2S,4S)-2′-amino-1′-methyl-5′-oxo-2-(thiophen-2-yl)-1′,5′-dihydrospiro[chroman-4,4′-imidazole]-6-yl)benzonitrile], under setting [1], the IC50 lay within 0.1 to 0.5 µM.

On to `CC(C)=CC(CCO)C1CC2(N=C(N)N(C)O2)c2cc(-c3cccc(Cl)c3)ccc2O1` (stereo not drawn) [Compound 412], for which the IC50 under setting [1] was in the range of 1 to 5 µM.

On to `CN1C(=O)[C@@]2(C[C@]3(CCCOC3)Oc3ccc(-c4cccc(C#N)c4)cc32)N=C1N` [Compound 72a], for which the IC50 under setting [1] was in the range of 0.001 to 0.1 µM.

As for `CC1CC(C)CC2(C1)CC1(N=C(N)N(C)C1=O)c1cc(-c3cccc(C#N)c3)ccc1O2` (stereo not drawn) [Compound 83], the IC50 under setting [1] fell in the range of 1 to 5 µM.

Turning to `CCN1C(=O)C2(CC(c3ccccc3)Oc3ccc(-c4cccc(C#N)c4)cc32)N=C1N` (stereo not drawn) [Compound 12, 3-(2′-amino-1′-ethyl-5′-oxo-2-phenyl-1′,5′-dihydrospiro[chroman-4,4′-imidazole]-6-yl)benzonitrile], the half-inhibitory concentration (IC50) under setting [1] lay in the range of 0.1 to 0.5 µM.

As to `Cc1cccc(-c2ccc3c(c2)[C@]2(C[C@]4(CCCOC4)O3)N=C(N)N(C)C2=O)c1C` [Compound 389], under setting [1], the 50% inhibitory concentration (IC50) is 1 to 5 µM.

As for `CN1OC2(CC(C3CCOC(C)(C)C3)Oc3ccc(-c4csc(-n5ccnc5)n4)cc32)N=C1N` (stereo not drawn) [Compound 370], the half-maximal inhibitory concentration (IC50) under setting [1] was 0.5 to 1 µM.

Regarding `Cc1cccc(-c2ccc3c(c2)C2(CC4(CCCOC4)O3)N=C(N)N(C)C2=O)c1` (stereo not drawn) [Compound 301], the concentration for half-maximal inhibition (IC50) under setting [1] was in the range of 0.1 to 0.5 µM.

For the compound `CN1C(=O)C2(CC(c3ccccc3F)Oc3ccc(Br)cc32)N=C1N` (stereo not drawn) [Compound 63, 2′-amino-6-bromo-2-(2-fluorophenyl)-1′-methylspiro-[chroman-4,4′-imidazol]-5′(1′H)-one], under setting [1], the 50% inhibitory concentration (IC50) was 10 to 50 µM.

On to `CN1C(=O)C2(CC(c3ccc(Cl)cc3)Oc3ccc(Br)cc32)N=C1N` (stereo not drawn) [Compound 53, 2′-amino-6-bromo-2-(4-chlorophenyl)-1′-methylspiro[chroman-4,4′-imidazol]-5′(1′H)-one], for which the IC50 under setting [1] fell in the range of 10 to 50 µM.

For the compound `CC1CCC2(CO1)CC1(N=C(N)N(C)O1)c1cc(-c3cccc(C#N)c3)ccc1O2` (stereo not drawn) [Compound 387, 3-(2″H-3″-amino-2″-methyl-spiro(spiro(chroman-2,3′-[2,4,5,6-tetrahydro-6-methyl-pyran])-4,5″-[1,2,4]oxadiazole)-6-yl)benzonitrile], the half-maximal inhibitory concentration (IC50) under setting [1] was in the range of 1 to 5 µM.

Regarding `CN1C(=O)C2(CC(c3ccccc3)Oc3ccc(-c4cccc(OC(F)(F)F)c4)cc32)N=C1N` (stereo not drawn) [Compound 24, 2′-amino-1′-methyl-2-phenyl-6-(3-(trifluoromethoxy)phenyl)spiro[chroman-4,4′-imidazol]-5′(1′H)-one], the IC50 lay in the range of 1 to 5 µM.

Turning to `CC(C)=CC(CCO)C1CC2(N=C(N)N(C)O2)c2cc(-c3cc(F)cc(C#N)c3)ccc2O1` (stereo not drawn) [Compound 377], under setting [1], the IC50 lay within 1 to 5 µM.

For the compound `CN1C(=O)C2(CC3(CCCOC3)Oc3ccc(-c4cccc(C#N)c4)cc32)N=C1N` (stereo not drawn) [Compound 72], under setting [1], the IC50 is 0.001 to 0.1 µM.

`CC(=O)NCc1cccc(-c2ccc3c(c2)C2(CC(c4ccccc4)O3)N=C(N)N(C)C2=O)c1` (stereo not drawn) [Compound 43, N-(3-(2′-amino-1′-methyl-5′-oxo-2-phenyl-1′,5′-dihydrospiro[chroman-4,4′-imidazole]-6-yl)benzyl)acetamide] returned a concentration for half-maximal inhibition (IC50) of 5 to 10 µM.

Take `COc1ccc(F)c(-c2ccc3c(c2)C2(CC(C4CCCOC4)O3)N=C(N)N(C)O2)c1` (stereo not drawn) [Compound 91]: the half-inhibitory concentration (IC50) under setting [1] fell in the range of 0.1 to 0.5 µM.

Take `CC(C)=CC(CCO)C1CC2(N=C(N)N(C)O2)c2cc(-c3cc(F)ccc3F)ccc2O1` (stereo not drawn) [Compound 434]: the IC50 under setting [1] lay in the range of 5 to 10 µM.

Turning to `CN1C(=O)[C@@]2(C[C@@]3(CCCOC3)Oc3ccc(-c4ccco4)cc32)N=C1N` [Compound 448], the IC50 under setting [1] fell in the range of 10 to 50 µM.

Turning to `CN1C(=O)C2(CC3(CCCC(C(F)(F)F)C3)Oc3ccc(-c4cccc(C#N)c4)cc32)N=C1N` (stereo not drawn) [Compound 81], the IC50 under setting [1] lay within 1 to 5 µM.

`CN1OC2(C[C@@H](C3CCCOC3)Oc3ccc(-c4cccnc4F)cc32)N=C1N` (stereo partly drawn) [Compound 89a]: the half-inhibitory concentration (IC50) under setting [1] fell in the range of 0.1 to 0.5 µM.

Regarding `CN1C(=O)C2(CC(c3ccccc3)Oc3ccc(-c4cccc(C(=O)N5CCCC5)c4)cc32)N=C1N` (stereo not drawn) [Compound 61, 2′-amino-1′-methyl-2-phenyl-6-(3-(pyrrolidine-1-carbonyl)phenyl)spiro[chroman-4,4′-imidazol]-5′(1′H)-one], the IC50 was 10 to 50 µM.

For `CC(C)=C[C@H](CCO)[C@@H]1C[C@@]2(N=C(N)N(C)O2)c2cc(-c3cccc(C(F)(F)F)c3)ccc2O1` [Compound 423], the IC50 under setting [1] lay in the range of 1 to 5 µM.

For `CN1OC2(CC3(CCOC(C)(C)C3)Oc3ccc(-c4cccc(C#N)c4)cc32)N=C1N` (stereo not drawn) [Compound 396], the IC50 under setting [1] was in the range of 1 to 5 µM.

Regarding `CN1OCC2(CC3(CCCOC3)Oc3ccc(-c4cccc(C#N)c4)cc32)N=C1N` (stereo not drawn) [Compound 455, 3-(spiro[spiro[chroman-2,1′-(3-oxacyclohexane)]-4,5′-(3-amino-2-methyl-2,6-dihydro-[1,2,4]oxadiazine)]-6-yl)benzonitrile], the IC50 under setting [1] is 10 to 50 µM.

Take `CN1OC2(CC3(CCOCC3)Oc3ccc(-c4cccc(C#N)c4)cc32)N=C1N` (stereo not drawn) [Compound 115]: the IC50 under setting [1] was 0.5 to 1 µM.

Take `COc1cccc(C2CC3(N=C(N)N(C)C3=O)c3cc(-c4cccc(C#N)c4)ccc3O2)c1` (stereo not drawn) [Compound 23, 3-(2′-amino-2-(3-methoxyphenyl)-1′-methyl-5′-oxo-1′,5′-dihydrospiro[chroman-4,4′-imidazole]-6-yl)benzonitrile]: the IC50 under setting [1] lay within 1 to 5 µM.

Values taken from US8450308B2 (Vitae Pharmaceuticals, Inc., priority 2008, dated 2013).
